Experimental data reported in paper PMC11802874, “The hypolipidemic effect of MI-883, the combined CAR agonist/ PXR antagonist, in diet-induced hypercholesterolemia model” (Nature Communications, 2025).
“And” between values parts separate entries of the source, which are not always exact repeats. Equal entries are not always repeated.

Key:
[1] = target: T1, human CAR ligand-binding domain (LBD) (Homo sapiens, UniProt Q14994); assay: TR-FRET CAR coactivator assay (LanthaScreen); assay type: biochemical
T1 construct: purchased ThermoFisher Scientific PV4836

[2] = system: 3D primary human hepatocyte spheroids; assay: RT-qPCR mRNA expression in 3D primary human hepatocyte spheroids; assay type: cell-based; conditions: for CYP2B6 fold change, 3D PHH spheroids, mean of donors / CYP3A4 fold change, 3D PHH spheroids, mean of donors: MI-883 (5 uM)
Procedure: Briefly, PHHs were cultivated for 6 days to generate compact spheroids by spontaneous self-aggregation and then half of PHH medium was exchanged for FBS-free PHH medium. 3D PHHs were treated with MI-883 (5 μM) commenced from day 8 within a time range of 8–120 h (time points were 8, 12, 24, 48, 72, and 120 h). Conditioned FBS-free PHH medium was changed every 2–3 days of the treatment. […] Data are presented as the mean ± SD of fold change expression gained from 3D spheroids of three different donors. ATP assay has been performed as described.

[3] = system: humanized PXR-CAR-CYP3A4/3A7 mice, plasma; assay: Plasma metabolomics (HFD study); assay type: in vivo, mouse
Procedure: Metabolomic plasma analysis was performed using plasma samples from male PXR/CAR/CYP3A4 mice (n=5) treated with MI-883 in the proof-of-concept study involving a high-fat diet^23. Plasma samples were prepared on ice, and each sample was separated into two 20 μl aliquots. All prepared aliquots were then frozen and stored at −80°C until analysis. Plasma aliquots were thawed, and protein precipitation was performed by adding 60 μl of a mixture containing 40% methanol, 40% acetonitrile, and 20% water. Samples were mixed, incubated for 12 hours at -20°C, and then centrifuged at 20,000 g for 10 minutes. The supernatants were collected for analysis by LC-MS/MS. A pooled quality control sample was prepared by mixing 10 μl from each sample. LC separation was performed on an iHILIC® Classic column (iHILIC®-(P) Classic, HILIC Column, PEEK,100x2.1mm, 5µm, 200Å, Hilicon, Umeå, Sweden) using a water/acetonitrile gradient with 10 mM ammonium formate, starting from 95% to 42% over 15 minutes in both polarities. LC-MS/MS analysis was conducted on the ID-X Orbitrap Tribrid Mass Spectrometer (ThermoFisher Scientific).

[4] = target: hERG potassium channel (Homo sapiens, UniProt Q12809); assay: Thallium flux FLIPR-based hERG assay; assay type: cell-based
Source text: Thallium flux FLIPR-based assay for the identification of hERG potassium channel inhibition

[5] = system: LS174T cells (endogenous PXR); assay: CYP3A4 mRNA RT-qPCR in LS174T cells
Source text: LS174T human colon adenocarcinoma cells (RRID:CVCL_1384) were used in induction experiments with the subsequent CYP3A4 mRNA RT-qPCR analysis as they express functional endogenous PXR.

[6] = target: PPARδ/β (Homo sapiens, UniProt Q03181); assay: Luciferase reporter gene assay PPARδ/β, HepG2
Source text: The luciferase reporter gene assays for FXR, LXRα, LXRβ, THα, GRα, PPARα, PPARδ/β, PPARγ, AhR, VD, ERα, ERβ and mouse Car are described in our recent paper[19]
Gal4-LBD constructs of tested nuclear receptors have been used together with pGL4.31[luc2P/GAL4UAS/Hygro] luciferase reporter construct and pRL-TK Renilla expression vector (both from Promega, Hercules, USA) in HepG2 cells transfected with Lipofectamine 2000 or 3000 reagents. For GRα and FXR receptors, full-length expression vectors have been used with pGRE-luc or pFXRE-luc luciferase constructs. For the aryl hydrocarbon receptor (AhR), p1A1-luc construct was used with only pRL-TK vector for transfection normalization. A dual reporter assay (Promega, Hercules, USA) was used to analyze both firefly and Renilla luciferase activities.
Gal4-LBD constructs of tested nuclear receptors have been used together with pGL5-luc luciferase reporter construct and pRL-TK Renilla expression vector in HepG2 cells transfected with Lipofectamine 2000 or 3000 reagents. For GRα and FXR receptors, full-length expression vectors have been used with pGRE-luc or pFXRE-luc luciferase constructs. For the aryl hydrocarbon receptor (AhR), p1A1-luc construct was used with only pRL-TK vector for transfection normalization. […] Bars represent means±S.D. (n=3).

[7] = target: T2, human PXR (Homo sapiens, UniProt O75469); assay: PXR-dependent CYP3A4 reporter gene assay in H-P cells; assay type: cell-based; design: expressed in transfected cells; host or cells: H-P cells (HepG2 stably transfected with pcDhPXR)
T2 sequence (O75469 1-434): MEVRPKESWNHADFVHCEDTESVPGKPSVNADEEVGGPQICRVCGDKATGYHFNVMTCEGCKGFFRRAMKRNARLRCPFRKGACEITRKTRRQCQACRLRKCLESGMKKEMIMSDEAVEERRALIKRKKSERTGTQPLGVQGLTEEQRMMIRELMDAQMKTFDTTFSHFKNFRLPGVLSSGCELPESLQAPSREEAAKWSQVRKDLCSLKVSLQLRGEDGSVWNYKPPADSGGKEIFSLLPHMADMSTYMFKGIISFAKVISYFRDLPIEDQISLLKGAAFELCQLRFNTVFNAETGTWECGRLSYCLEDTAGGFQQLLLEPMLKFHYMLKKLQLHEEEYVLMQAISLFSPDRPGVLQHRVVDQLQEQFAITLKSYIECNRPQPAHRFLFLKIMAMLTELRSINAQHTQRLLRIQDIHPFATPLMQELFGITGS
Procedure: Luciferase reporter gene assays in PXR expressing H-P cells and mammalian two-hybrid reporter assays have been performed as described before[55],[57].
We also analyzed PXR-dependent CYP3A4 reporter gene assays in H-P cells, which represent HepG2 cells stably over-expressing human PXR, due to transfection of PXR expression plasmid pcDhPXR^5. […] 0.01 µg Metridia luciferase expression plasmid pMetLuc2control per well was included.

[8] = FigS18c, plasma, individual animals

T1 sequence (Q14994 109-348 isoform Q14994-2 limits assumed, other chains not shown): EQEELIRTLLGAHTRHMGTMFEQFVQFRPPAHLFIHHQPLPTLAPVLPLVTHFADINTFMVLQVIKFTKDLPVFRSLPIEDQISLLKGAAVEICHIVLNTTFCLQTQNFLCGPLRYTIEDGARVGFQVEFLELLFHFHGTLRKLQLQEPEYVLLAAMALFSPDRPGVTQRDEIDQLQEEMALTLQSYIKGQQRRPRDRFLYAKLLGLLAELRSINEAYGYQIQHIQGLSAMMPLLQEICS
Chain of hERG potassium channel (Q12809 whole entry): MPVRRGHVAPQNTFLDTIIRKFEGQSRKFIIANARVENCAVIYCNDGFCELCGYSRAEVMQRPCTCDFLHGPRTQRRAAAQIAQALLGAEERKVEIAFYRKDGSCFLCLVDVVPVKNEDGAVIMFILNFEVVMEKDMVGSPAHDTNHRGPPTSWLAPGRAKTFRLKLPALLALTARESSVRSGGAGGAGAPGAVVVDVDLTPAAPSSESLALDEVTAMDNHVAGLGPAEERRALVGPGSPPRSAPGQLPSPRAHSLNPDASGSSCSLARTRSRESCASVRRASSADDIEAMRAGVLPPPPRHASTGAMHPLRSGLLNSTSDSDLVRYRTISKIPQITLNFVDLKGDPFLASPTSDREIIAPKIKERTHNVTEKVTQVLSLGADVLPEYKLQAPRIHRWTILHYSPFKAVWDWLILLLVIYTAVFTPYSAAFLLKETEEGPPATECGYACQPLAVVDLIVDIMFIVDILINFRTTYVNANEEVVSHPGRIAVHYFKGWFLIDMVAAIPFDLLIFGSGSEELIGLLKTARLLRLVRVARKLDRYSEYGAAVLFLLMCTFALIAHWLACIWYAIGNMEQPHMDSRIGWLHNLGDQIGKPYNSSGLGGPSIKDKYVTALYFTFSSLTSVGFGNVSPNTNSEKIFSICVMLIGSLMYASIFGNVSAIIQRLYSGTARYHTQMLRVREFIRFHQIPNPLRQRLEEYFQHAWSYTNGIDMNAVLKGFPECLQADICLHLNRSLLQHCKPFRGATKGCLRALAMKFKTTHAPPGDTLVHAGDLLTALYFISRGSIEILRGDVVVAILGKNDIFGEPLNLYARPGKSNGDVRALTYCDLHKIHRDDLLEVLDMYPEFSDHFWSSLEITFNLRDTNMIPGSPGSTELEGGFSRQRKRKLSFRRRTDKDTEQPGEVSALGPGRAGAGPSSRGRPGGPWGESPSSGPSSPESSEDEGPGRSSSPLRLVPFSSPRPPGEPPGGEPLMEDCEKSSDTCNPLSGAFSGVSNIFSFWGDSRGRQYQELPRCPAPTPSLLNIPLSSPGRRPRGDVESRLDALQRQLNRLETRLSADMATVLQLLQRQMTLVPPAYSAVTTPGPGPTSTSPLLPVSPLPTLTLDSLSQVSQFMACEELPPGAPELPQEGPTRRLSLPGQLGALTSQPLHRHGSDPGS
Chain of PPARδ/β (Q03181 211-439 limits assumed): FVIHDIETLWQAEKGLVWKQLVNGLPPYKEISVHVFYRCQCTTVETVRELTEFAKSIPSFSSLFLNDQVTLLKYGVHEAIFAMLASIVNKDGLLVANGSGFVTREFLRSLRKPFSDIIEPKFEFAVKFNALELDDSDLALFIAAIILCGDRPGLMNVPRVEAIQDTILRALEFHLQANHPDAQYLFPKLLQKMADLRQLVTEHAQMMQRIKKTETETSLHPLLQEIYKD

NC(=O)c1cc(Cn2cc(-c3c(-c4ccc(Cl)cc4)nc4cc(F)ccn34)nn2)ccc1Cl [MI-883, 2-chloro-5-((4-(2-(4-chlorophenyl)-7-fluoroimidazo[1,2-a]pyridin-3-yl)-1H-1,2,3-triazol-1-yl)methyl)benzamide]
TR-FRET CAR Coactivator assay, mean signal (Fig. 1b) ([1]; 100pM): 1 | TR-FRET CAR Coactivator assay, mean signal (Fig. 1b) ([1]; 1nM): 1.012 | TR-FRET CAR Coactivator assay, mean signal (Fig. 1b) ([1]; 10nM): 1.235 | TR-FRET CAR Coactivator assay, mean signal (Fig. 1b) ([1]; 100nM): 1.572 | TR-FRET CAR Coactivator assay, mean signal (Fig. 1b) ([1]; 0.5μM): 1.870 | TR-FRET CAR Coactivator assay, mean signal (Fig. 1b) ([1]; 1 μM): 2.020 | TR-FRET CAR Coactivator assay, mean signal (Fig. 1b) ([1]; 10 μM): 2.020 | TR-FRET CAR Coactivator assay, mean signal (Fig. 1b) ([1]; 30 μM): 2.046 | EC50 ([1]; recombinant CAR LBD): 73 ± 20 nM | proliferative biomarkers MDM2, PCNA, FOXM1 in 3D human hepatocyte spheroid ([2]; 72 h): no significant effects | CYP2B6 fold change, 3D PHH spheroids, mean of donors ([2]; 8 h): 1.9 | CYP3A4 fold change, 3D PHH spheroids, mean of donors ([2]; 8 h): 0.9 | CYP2B6 fold change, 3D PHH spheroids, mean of donors ([2]; 12 h): 3.0 | CYP3A4 fold change, 3D PHH spheroids, mean of donors ([2]; 12 h): 0.7 | CYP2B6 fold change, 3D PHH spheroids, mean of donors ([2]; 24 h): 5.1 | CYP3A4 fold change, 3D PHH spheroids, mean of donors ([2]; 24 h): 0.8 | CYP2B6 fold change, 3D PHH spheroids, mean of donors ([2]; 48 h): 8.0 | CYP3A4 fold change, 3D PHH spheroids, mean of donors ([2]; 48 h): 1.0 | CYP2B6 fold change, 3D PHH spheroids, mean of donors ([2]; 72 h): 8.2 | CYP3A4 fold change, 3D PHH spheroids, mean of donors ([2]; 72 h): 0.8 | CYP2B6 fold change, 3D PHH spheroids, mean of donors ([2]; 120 h): 6.7 | CYP3A4 fold change, 3D PHH spheroids, mean of donors ([2]; 120 h): 0.7 | Isoleucine (plasma metabolomic data) [3, 8]: 93.5 and 119.8 and 74.2 and 56.6 and 106.4 and 73.7 | Leucine (plasma metabolomic data) [3, 8]: 53.5 and 73.3 and 34.8 and 24.3 and 49.7 and 38.6 | Valine (plasma metabolomic data) [3, 8]: 2968.9 and 1967.5 and 1520.8 and 1183.5 and 1942.7 and 1962.8 | plasma 2-hydroxy-3-oxopropanoate, change ([3]; HFD study, male mice): 1.595 fold | plasma 5-aminopentanoic acid (5-aminovalerate), change ([3]; HFD study, male mice): 1.375 fold | plasma isoleucine, change ([3]; HFD study, male mice): 1.638 fold | plasma small-molecule metabolome ([3]; HFD study, male mice): no significant effect | hERG IC50 [4]: could not be defined | hERG assay, inhibition of hERG potassium channel activity [4]: no significant inhibition up to 100 µM | RT-qPCR in LS174T (Fig 1 l, CYP3A4 mRNA), replicates ([5]; Rif 1μM + MI-883 1μM): 2.91 and 2.35 and 2.61 | RT-qPCR in LS174T (Fig 1 l, CYP3A4 mRNA), replicates ([5]; Rif 1μM + test compound 10μM): 0.86 and 1.1 and 0.8 | RT-qPCR in LS174T (Fig 1 l, CYP3A4 mRNA), replicates ([5]; Rif 10μM + MI-883 1μM): 10.4 and 6.9 and 8.3 | RT-qPCR in LS174T (Fig 1 l, CYP3A4 mRNA), replicates ([5]; Rif 10μM + MI-883 10μM): 3.35 and 2.8 and 2.2 | RT-qPCR in LS174T (Fig 1 l, CYP3A4 mRNA), replicates ([5]; SR12813 1μM + MI-883 1μM): 0.55 and 0.68 and 0.64 | RT-qPCR in LS174T (Fig 1 l, CYP3A4 mRNA), replicates ([5]; SR12813 1μM + test compound 10μM): 0.77 and 0.59 and 0.57 | RT-qPCR in LS174T (Fig 1 l, CYP3A4 mRNA), replicates ([5]; single agent 1μM, ctrl = 1): 0.45 and 0.96 and 0.51 | RT-qPCR in LS174T (Fig 1 l, CYP3A4 mRNA), replicates ([5]; single agent 10μM): 0.59 and 0.57 and 0.55 | NRs assays: PPARd (relative to ctrl, replicates) [6]: 1.06 and 1.19 and 1.12 | PXR-dependent CYP3A4 reporter activity in H-P cells, replicates ([7]; 5 MI883 (µM not given), DMSO ~1): 0.825 and 0.683 and 0.491 | PXR-dependent CYP3A4 reporter activity in H-P cells, replicates ([7]; 30 MI883): 0.49 and 0.788 and 0.597 | PXR-dependent CYP3A4 reporter activity in H-P cells, replicates ([7]; RIF + 5 MI883): 10.8 and 10.1 and 9.53 | PXR-dependent CYP3A4 reporter activity in H-P cells, replicates ([7]; RIF + 10 MI883): 5.74 and 6.79 and 5.06 | PXR-dependent CYP3A4 reporter activity in H-P cells, replicates ([7]; RIF + 30 MI883): 1.18 and 2.43 and 2.32 | PXR-dependent CYP3A4 reporter activity in H-P cells, replicates ([7]; single agent: RIF (10 µM), 10 MI883): 0.606 and 0.813 and 0.535
